The values that follow come from patent US7951990B2, “Method and means for determining fitness in plants” (Bayer Bioscience N.V., priority 2001, dated 2011).

Each structure is given as a SMILES string.

What all share (assay type): cell-based, Brassica napus
For experiment [1], the system named is cytochromal and alternative respiratory pathways.
Experiment [2] relates to superoxide production by the hypocotyl explants. The experiment in a line: quantification of superoxide production by hypocotyl explants (XTT reduction). Particulars: 25 mg/l, incubation for 18 hours; all four hybrid lines. (In general: Tetrazolium assays rely on reduction of a dye to a coloured formazan, in cell work by metabolically active cells.)
Experiment [3] deals with electron flow in the mitochondrial electron transport chain (TTC-reducing capacity of hypocotyl explants). The experiment in a line: vigour assay (TTC-assay) with acetylsalicylic acid added to the incubation medium. Conditions: for TTC-reducing capacity after treatment versus control condition / TTC-reducing capacity after treatment: 25 mg/l; for TTC-reducing capacity after treatment versus control condition: about 18 hours.

Take `O=C(NO)c1ccccc1O` [SHAM, salicylhydroxamic acid]: in experiment [1], the “influence on the TTC reduction” value is “does not seem to have a major influence”.

With `CC(=O)Oc1ccccc1C(=O)O` [acetylsalicylic acid], the “XTT reduction (superoxides)” value in experiment [2] is reported as “lower amounts of XTT were reduced”. Besides, the “TTC-reducing capacity after treatment versus control condition” value in experiment [3] (hybrid line 13 (lowest seed yield)) is “increased drastically”; in experiment [3] (hybrid line 41 (highest seed yield)), “strongest decrease”. Also, the “TTC-reducing capacity after treatment” value in experiment [3] (parental line DH7 (poor combining ability)) is listed as “high increase”; in experiment [3] (parental lines A and B (excellent combining ability)), “decreased”; in experiment [3] (parental lines DH4, DH5 and DH10 (moderate to good combining ability)) it was “no or only a small increase”. Besides, the TTC-reducing capacity entry is given as “increased” in experiment [3] (50 mg/l, best performing hybrid lines); “didn't show at 50 mg/l acetylsalicylic acid this increase” in experiment [3] (50 mg/l, hybrid lines with a less pronounced heterosis); “decrease again” in experiment [3] (100 mg/l, best performing hybrid lines).
